# Experiments:
# [1] = Pharmacokinetic (PK) studies in beagle dog; type: in vivo; conditions: for AUC(0-t) / clearance / half-life: dog, male beagle dogs, plasma
# Protocol: Test Example 8: Pharmacokinetic (PK) Studies in Beagle Dog
# The compound of Example 12, Control Compound 1, Control Compound 2, and TNO-155 were administered to male beagle dogs by intravenous injection (IV) and gavage (PO) respectively to estimate the pharmacokinetic properties. Dosing amounts for IV and PO routes were 0.5 mg/kg and 2.5 mg/kg. The solvent for IV route was 5% DMSO+5% Solutol+90% Saline, and the solvent for PO route was 0.5% MC (sodium methylcellulose). Blood was collected at various time points after IV and PO administration. The blood was anticoagulated using EDTA.K2, and centrifuged to obtain plasma samples. The plasma samples were preserved at −80° C.
# The plasma samples were subjected to protein precipitation and then to the LC-MS/MS analysis. WinNonlin 6.3 software was used to calculate the pharmacokinetic parameters by non-compartmental model, and the results were listed in Table 8 below.
# EGFR (ErbB1) T790M L858R = biological target: T1, EGFR (ErbB1) T790M L858R (Homo sapiens, UniProt P00533, L858R/T790M); test: Kinase selectivity test (ThermoFisher); type: biochemical
# T1 construct: purchased ThermoFisher USA (contract testing)
# Protocol: (§1) Test Example 11: Kinase Selectivity Test
# (§2) 1. Experimental Purpose: Tests for selectivity of the compounds of the present disclosure for a plurality of kinases were carried out to assess the safety risk of the compounds of the present disclosure.
# (§3) 2. Test institution: ThermoFisher USA
# (§4) 3. Testing methods: LanthaScreen binding, Z′-LYTE, Adapta
# (§5) 4. Test targets: 100 targets in total
# 100 kinase targets = test: Kinase selectivity test, whole panel (ThermoFisher); type: biochemical
# Protocol: as §1, §2, §3, §4, §5
# FLT3 D835Y = biological target: T2, FLT3 D835Y (Homo sapiens, UniProt P36888, D835Y); test: Kinase selectivity test (ThermoFisher); type: biochemical; set-up: concentration or dose not given beside the values
# T2 construct: purchased ThermoFisher USA (contract testing)
# T2 sequence (P36888 27-993 D835Y): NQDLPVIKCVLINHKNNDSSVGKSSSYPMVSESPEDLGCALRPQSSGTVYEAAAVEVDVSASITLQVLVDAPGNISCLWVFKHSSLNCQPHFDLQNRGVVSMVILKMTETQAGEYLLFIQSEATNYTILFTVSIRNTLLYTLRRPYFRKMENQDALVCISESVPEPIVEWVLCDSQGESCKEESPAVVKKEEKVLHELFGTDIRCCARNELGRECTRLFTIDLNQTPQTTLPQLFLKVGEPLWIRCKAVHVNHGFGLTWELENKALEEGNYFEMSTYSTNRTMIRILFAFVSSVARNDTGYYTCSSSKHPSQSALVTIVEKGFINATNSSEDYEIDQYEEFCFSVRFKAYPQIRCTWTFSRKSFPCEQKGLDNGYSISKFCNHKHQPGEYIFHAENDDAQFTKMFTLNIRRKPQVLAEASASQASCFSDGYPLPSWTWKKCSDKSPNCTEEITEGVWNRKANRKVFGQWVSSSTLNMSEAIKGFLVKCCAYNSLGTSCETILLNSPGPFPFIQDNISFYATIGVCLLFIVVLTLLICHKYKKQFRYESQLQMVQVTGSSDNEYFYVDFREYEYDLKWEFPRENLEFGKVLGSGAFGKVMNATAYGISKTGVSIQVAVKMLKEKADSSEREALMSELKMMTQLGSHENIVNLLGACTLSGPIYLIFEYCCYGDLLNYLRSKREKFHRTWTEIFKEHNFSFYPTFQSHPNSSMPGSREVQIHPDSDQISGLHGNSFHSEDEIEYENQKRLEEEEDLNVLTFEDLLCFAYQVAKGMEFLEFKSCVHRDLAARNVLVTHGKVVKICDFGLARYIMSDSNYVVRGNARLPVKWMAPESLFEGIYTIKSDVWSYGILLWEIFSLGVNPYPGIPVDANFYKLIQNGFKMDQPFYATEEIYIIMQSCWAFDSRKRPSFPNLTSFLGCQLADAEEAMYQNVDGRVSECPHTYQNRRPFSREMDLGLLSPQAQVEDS
# Protocol: as §1, §2, §3, §4, §5
# CAMK1 (CaMK1) = biological target: T3, CAMK1 (CaMK1) (Homo sapiens, UniProt Q14012); test: Kinase selectivity test (ThermoFisher); type: biochemical; set-up: concentration or dose not given beside the values
# T3 construct: purchased ThermoFisher USA (contract testing)
# Protocol: as §1, §2, §3, §4, §5
# CDK8/ cyclin C = biological target: T4, CDK8/ cyclin C (Homo sapiens, UniProt P49336); test: Kinase selectivity test (ThermoFisher); type: biochemical; set-up: concentration or dose not given beside the values
# T4 construct: purchased ThermoFisher USA (contract testing)
# Protocol: as §1, §2, §3, §4, §5
# SGK (SGK1) = biological target: T5, SGK (SGK1) (Homo sapiens, UniProt O00141); test: Kinase selectivity test (ThermoFisher); type: biochemical; set-up: concentration or dose not given beside the values
# T5 construct: purchased ThermoFisher USA (contract testing)
# T5 sequence (O00141 1-431): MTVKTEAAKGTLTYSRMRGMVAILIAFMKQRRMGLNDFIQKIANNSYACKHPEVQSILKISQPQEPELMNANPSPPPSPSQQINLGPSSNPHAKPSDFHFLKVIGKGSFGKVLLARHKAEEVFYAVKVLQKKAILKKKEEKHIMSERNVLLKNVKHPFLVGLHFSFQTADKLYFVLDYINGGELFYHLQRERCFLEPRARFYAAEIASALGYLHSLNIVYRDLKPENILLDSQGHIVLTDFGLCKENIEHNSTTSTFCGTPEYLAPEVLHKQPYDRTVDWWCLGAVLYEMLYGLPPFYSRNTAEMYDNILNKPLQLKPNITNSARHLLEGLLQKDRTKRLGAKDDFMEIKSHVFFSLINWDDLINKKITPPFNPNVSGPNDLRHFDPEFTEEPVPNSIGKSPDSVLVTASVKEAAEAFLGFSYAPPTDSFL
# Protocol: as §1, §2, §3, §4, §5
# MAPKAPK2 = biological target: T6, MAPKAPK2 (Homo sapiens, UniProt P49137); test: Kinase selectivity test (ThermoFisher); type: biochemical; set-up: concentration or dose not given beside the values
# T6 construct: purchased ThermoFisher USA (contract testing)
# Protocol: as §1, §2, §3, §4, §5
# GSK3A (GSK3 alpha) = biological target: T7, GSK3A (GSK3 alpha) (Homo sapiens, UniProt P49840); test: Kinase selectivity test (ThermoFisher); type: biochemical; set-up: concentration or dose not given beside the values
# T7 construct: purchased ThermoFisher USA (contract testing)
# Protocol: as §1, §2, §3, §4, §5
# GSK3B (GSK3 beta) = biological target: T8, GSK3B (GSK3 beta) (Homo sapiens, UniProt P49841); test: Kinase selectivity test (ThermoFisher); type: biochemical; set-up: concentration or dose not given beside the values
# T8 construct: purchased ThermoFisher USA (contract testing)
# Protocol: as §1, §2, §3, §4, §5
# T8 sequence (P49841 whole entry): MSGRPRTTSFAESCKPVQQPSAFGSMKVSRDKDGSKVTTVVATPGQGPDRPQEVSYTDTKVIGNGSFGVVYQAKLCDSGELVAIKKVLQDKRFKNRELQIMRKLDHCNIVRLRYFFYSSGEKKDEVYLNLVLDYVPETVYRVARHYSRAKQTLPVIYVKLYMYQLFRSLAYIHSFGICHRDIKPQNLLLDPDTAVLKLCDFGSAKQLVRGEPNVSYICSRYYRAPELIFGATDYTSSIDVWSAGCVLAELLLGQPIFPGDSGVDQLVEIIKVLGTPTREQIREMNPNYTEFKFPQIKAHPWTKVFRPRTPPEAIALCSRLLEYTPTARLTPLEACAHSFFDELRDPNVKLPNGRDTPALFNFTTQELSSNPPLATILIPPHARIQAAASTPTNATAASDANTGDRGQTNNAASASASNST
# T1 sequence (P00533 25-1210 T790M/L858R): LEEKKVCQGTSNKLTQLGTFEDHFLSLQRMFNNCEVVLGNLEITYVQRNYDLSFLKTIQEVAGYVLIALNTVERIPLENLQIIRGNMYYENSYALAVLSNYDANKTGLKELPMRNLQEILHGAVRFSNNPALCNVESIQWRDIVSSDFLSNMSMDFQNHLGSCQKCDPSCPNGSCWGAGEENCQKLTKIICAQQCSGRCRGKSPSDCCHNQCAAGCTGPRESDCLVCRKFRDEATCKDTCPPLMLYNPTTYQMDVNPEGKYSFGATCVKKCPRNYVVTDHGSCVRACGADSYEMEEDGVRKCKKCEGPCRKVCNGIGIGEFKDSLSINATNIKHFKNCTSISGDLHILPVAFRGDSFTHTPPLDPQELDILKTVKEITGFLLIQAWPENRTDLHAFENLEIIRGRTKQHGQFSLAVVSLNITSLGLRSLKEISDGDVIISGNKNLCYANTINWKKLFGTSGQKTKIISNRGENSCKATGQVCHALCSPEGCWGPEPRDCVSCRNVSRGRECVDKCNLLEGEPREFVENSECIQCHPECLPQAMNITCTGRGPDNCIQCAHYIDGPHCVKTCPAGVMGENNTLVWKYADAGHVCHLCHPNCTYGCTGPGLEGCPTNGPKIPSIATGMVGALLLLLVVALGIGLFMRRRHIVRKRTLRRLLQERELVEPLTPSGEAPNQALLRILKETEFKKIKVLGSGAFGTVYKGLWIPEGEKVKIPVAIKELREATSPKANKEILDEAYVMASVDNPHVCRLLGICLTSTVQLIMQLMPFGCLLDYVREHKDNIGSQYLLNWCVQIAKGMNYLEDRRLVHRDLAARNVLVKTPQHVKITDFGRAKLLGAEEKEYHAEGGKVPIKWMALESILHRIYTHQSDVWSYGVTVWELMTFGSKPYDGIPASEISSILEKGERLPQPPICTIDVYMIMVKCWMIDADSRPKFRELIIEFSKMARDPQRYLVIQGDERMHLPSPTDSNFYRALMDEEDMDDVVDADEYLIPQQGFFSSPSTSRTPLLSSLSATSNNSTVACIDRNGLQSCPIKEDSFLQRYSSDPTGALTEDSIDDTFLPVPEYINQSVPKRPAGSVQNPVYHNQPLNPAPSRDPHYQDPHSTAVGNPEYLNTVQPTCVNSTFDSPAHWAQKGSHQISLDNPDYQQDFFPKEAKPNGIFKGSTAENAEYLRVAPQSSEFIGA
# T3 sequence (Q14012 whole entry): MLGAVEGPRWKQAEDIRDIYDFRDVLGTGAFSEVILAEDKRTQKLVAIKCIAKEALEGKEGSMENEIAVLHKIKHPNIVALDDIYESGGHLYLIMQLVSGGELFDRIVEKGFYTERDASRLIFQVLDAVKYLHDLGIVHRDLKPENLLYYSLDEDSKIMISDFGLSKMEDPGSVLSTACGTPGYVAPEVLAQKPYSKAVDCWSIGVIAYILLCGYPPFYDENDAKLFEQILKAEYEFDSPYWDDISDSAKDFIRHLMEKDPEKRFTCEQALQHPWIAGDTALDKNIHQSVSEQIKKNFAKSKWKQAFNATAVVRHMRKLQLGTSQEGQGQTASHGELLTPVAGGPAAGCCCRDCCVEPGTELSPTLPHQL
# T7 sequence (P49840 whole entry): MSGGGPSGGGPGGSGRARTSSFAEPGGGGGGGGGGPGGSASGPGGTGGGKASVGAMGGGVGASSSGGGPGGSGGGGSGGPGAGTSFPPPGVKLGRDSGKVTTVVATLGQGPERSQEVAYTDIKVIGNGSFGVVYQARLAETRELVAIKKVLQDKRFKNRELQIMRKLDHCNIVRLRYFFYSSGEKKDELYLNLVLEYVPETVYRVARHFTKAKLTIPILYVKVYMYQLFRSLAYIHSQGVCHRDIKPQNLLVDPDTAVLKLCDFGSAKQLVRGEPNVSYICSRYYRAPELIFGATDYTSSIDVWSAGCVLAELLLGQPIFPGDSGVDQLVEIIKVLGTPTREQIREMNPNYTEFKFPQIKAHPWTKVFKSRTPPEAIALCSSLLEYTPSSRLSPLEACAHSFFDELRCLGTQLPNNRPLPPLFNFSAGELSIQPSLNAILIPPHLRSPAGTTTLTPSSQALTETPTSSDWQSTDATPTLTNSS
# T6 sequence (P49137 whole entry): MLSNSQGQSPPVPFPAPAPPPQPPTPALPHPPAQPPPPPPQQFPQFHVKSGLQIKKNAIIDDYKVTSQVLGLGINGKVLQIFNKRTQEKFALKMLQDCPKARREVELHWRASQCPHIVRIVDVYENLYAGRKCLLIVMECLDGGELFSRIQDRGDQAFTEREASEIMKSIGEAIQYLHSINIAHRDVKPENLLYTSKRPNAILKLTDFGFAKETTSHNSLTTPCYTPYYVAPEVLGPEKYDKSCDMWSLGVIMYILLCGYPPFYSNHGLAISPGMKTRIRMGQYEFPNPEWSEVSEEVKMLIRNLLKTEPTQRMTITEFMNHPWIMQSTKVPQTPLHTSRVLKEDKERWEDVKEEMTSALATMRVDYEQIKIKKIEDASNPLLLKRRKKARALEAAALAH
# T4 sequence (P49336 whole entry): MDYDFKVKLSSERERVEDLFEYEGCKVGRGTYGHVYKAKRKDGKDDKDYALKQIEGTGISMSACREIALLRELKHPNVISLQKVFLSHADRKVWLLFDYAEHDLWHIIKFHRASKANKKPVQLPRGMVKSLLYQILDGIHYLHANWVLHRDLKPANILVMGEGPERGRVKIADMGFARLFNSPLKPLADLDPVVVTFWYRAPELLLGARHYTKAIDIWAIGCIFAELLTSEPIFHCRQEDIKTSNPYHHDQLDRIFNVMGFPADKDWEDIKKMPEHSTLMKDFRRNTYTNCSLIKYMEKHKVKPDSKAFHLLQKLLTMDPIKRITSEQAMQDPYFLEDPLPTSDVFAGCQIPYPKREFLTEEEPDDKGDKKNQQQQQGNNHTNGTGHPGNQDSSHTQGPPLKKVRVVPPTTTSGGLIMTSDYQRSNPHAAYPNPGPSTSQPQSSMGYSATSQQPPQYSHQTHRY
# T4 sequence (P24863 whole entry partner): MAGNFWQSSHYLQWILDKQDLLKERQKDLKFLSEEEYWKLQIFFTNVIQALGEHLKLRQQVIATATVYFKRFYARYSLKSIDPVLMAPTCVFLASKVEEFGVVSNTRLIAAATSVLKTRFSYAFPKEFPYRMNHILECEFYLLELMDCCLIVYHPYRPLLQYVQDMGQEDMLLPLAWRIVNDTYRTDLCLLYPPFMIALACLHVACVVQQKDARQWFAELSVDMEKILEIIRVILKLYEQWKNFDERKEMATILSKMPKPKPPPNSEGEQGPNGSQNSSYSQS
Structure (SMILES),Inhibition (%) Target 1 (EGFR (ErbB1) T790M L858R),Inhibition (%) Target 2 (EGFR (ErbB1) T790M L858R),Inhibition (%) Mean value (EGFR (ErbB1) T790M L858R),Inhibition (%) Target 1 (FLT3 D835Y),Inhibition (%) Target 2 (FLT3 D835Y),Inhibition (%) Mean value (FLT3 D835Y),Inhibition (%) Target 1 (CAMK1 (CaMK1)),Inhibition (%) Target 2 (CAMK1 (CaMK1)),Inhibition (%) Mean value (CAMK1 (CaMK1)),Inhibition (%) Target 1 (CDK8/ cyclin C),Inhibition (%) Target 2 (CDK8/ cyclin C),Inhibition (%) Mean value (CDK8/ cyclin C),Inhibition (%) Target 1 (SGK (SGK1)),Inhibition (%) Target 2 (SGK (SGK1)),Inhibition (%) Mean value (SGK (SGK1)),Inhibition (%) Target 1 (MAPKAPK2),Inhibition (%) Target 2 (MAPKAPK2),Inhibition (%) Mean value (MAPKAPK2),Inhibition (%) Target 1 (GSK3A (GSK3 alpha)),Inhibition (%) Target 2 (GSK3A (GSK3 alpha)),also measured
"C[C@@H]1OCC2(CCN(c3cnc(Sc4ccnc(N)c4Cl)c(N)n3)CC2)[C@@H]1N [TNO-155, reference compound]",81%,77%,79%,71%,69%,70%,55%,46%,51%,89%,89%,89%,62%,57%,60%,106%,107%,106%,92%,87%,"AUC(0-t) ([1]; IV, 0.5 mg/kg): 2.35 µg·h/mL; clearance ([1]; IV, 0.5 mg/kg): 0.206 L/h/kg; AUC(0-t) ([1]; PO, 2.5 mg/kg): 10.1 µg·h/mL; half-life ([1]; PO, 2.5 mg/kg): 13.2 h; inhibitory effect on the remaining 86 targets (100 kinase targets; 86 of the 100 kinase targets): weak inhibitory effect; inhibitory effect on the above 14 kinase targets (100 kinase targets; the 14 kinases of the table): strong inhibitory effect; Inhibition (%) Mean value (GSK3A (GSK3 alpha)): 90%; Inhibition (%) Target 1 (GSK3B (GSK3 beta)): 96%; Inhibition (%) Target 2 (GSK3B (GSK3 beta)): 96%; Inhibition (%) Mean value (GSK3B (GSK3 beta)): 96%"
"C[C@@H]1OCC2(CCN(c3ncc(Sc4ccnc(N5CC(C(C)(C)O)C5)c4Cl)nc3CO)CC2)[C@@H]1N [Example 12, 2-(1-(4-(5-((3S,4S)-4-amino-3-methyl-2-oxa-8-azaspiro[4.5]decan-8-yl)-6-(hydroxymethyl)pyrazin-2-ylthio)-3-chloropyridin-2-yl)azetidin-3-yl)propan-2-ol]",0%,5%,2%,5%,6%,6%,−9%,−16%,−12%,7%,−3%,2%,1%,2%,1%,31%,27%,29%,9%,8%,"pharmacokinetic properties (in words) ([1]; beagle dog, 0.5 mg/kg by injection and 2.5 mg/Kg by mouth): excellent pharmacokinetic properties; AUC(0-t) ([1]; in vivo, IV, 0.5 mg/kg): 3.09 µg·h/mL; clearance ([1]; in vivo, IV, 0.5 mg/kg): 0.139 L/h/kg; AUC(0-t) ([1]; in vivo, PO, 2.5 mg/kg): 11 µg·h/mL; half-life ([1]; in vivo, PO, 2.5 mg/kg): 24.5 h; inhibitory effect on all of the 100 kinase targets (100 kinase targets; all 100 kinase targets): weak inhibitory effect; Inhibition (%) Mean value (GSK3A (GSK3 alpha)): 8%; Inhibition (%) Target 1 (GSK3B (GSK3 beta)): 7%; Inhibition (%) Target 2 (GSK3B (GSK3 beta)): 7%; Inhibition (%) Mean value (GSK3B (GSK3 beta)): 7%"

# Source: patent US20230212180A1, “SUBSTITUTED PYRAZINE COMPOUND, PHARMACEUTICAL COMPOSITION COMPRISING SAME, AND USE THEREOF” (Sichuan Kelun-Biotech Biopharmaceutical Co., Ltd., priority 2020, published 2023)
